# Experimental data published in PubChem BioAssay (NCI).
#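 At the GI50, growth is halved. Definition used: TGI = concentration required for complete inhibition of growth.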
# What was measured:
# Assay in all cases: NCI tumour cell line growth inhibition, 384-well format
# [1] = test system: OVCAR-8 ovarian
# [2] = test system: 786-0 renal
# [3] = test system: BT-549 breast
# [4] = test system: OVCAR-4 ovarian
# [5] = test system: SF-295 CNS
# [6] = test system: NCI-H460 NSCLC
# [7] = test system: SK-MEL-2 melanoma
# [8] = test system: A498 renal
# [9] = test system: LOX IMVI melanoma
# [10] = test system: T-47D breast
# [11] = test system: OVCAR-3 ovarian
# [12] = test system: HOP-92 NSCLC
# [13] = test system: MALME-3M melanoma
# [14] = test system: K-562 leukemia
# [15] = test system: UO-31 renal
# [16] = test system: NCI-H322M lung
# [17] = test system: M14 melanoma
# [18] = test system: NCI-H23 lung
# [19] = test system: SK-MEL-28 melanoma
# [20] = test system: HT29 colon
# [21] = test system: MDA-MB-435 melanoma
# [22] = test system: MDA-MB-231 breast
# [23] = test system: SK-OV-3 ovarian
# [24] = test system: SF-268 CNS
# [25] = test system: SR leukemia
# [26] = test system: SNB-75 CNS
# [27] = test system: CAKI-1 renal
# [28] = test system: SNB-19 CNS
# [29] = test system: HOP-62 NSCLC
# [30] = test system: UACC-257 melanoma
# [31] = test system: NCI-H522 lung
# [32] = test system: ACHN renal
# [33] = test system: NCI-H226 lung
# [34] = test system: HCT-15 colon
# [35] = test system: RPMI-8226 leukemia
# [36] = test system: MCF7 breast
# [37] = test system: HL-60(TB) leukemia
# [38] = test system: OVCAR-5 ovarian
# [39] = test system: SN12C renal
# [40] = test system: DU-145 prostate
# [41] = test system: HCT-116 colon
# [42] = test system: A549 NSCLC
# [43] = test system: NCI/ADR-RES ovarian
# [44] = test system: MDA-MB-468 breast
# [45] = test system: EKVX NSCLC
# [46] = test system: MOLT-4 leukemia
# [47] = test system: UACC-62 melanoma
# [48] = test system: COLO 205 colon
# [49] = test system: U251 glioblastoma
# [50] = test system: SF-539 CNS
# [51] = test system: KM12 colon
# [52] = test system: TK-10 renal
# [53] = test system: CCRF-CEM leukemia
# [54] = test system: PC-3 prostate
# [55] = test system: HCC-2998 colon
# [56] = test system: RXF 393 renal
# [57] = test system: IGROV1 ovarian
# [58] = test system: SK-MEL-5 melanoma
# [59] = test system: SW-620 colon
smiles,measurement,setting,value
CCc1cccc(CC)c1NC(=O)c1ccn2c1CCc1cnc(Nc3ccc(N4CCN(C)CC4)cc3OC)nc1-2,GI50,[1],0.0198 µM
same,TGI,[1],1.14 µM
same,GI50,[2],0.0391 µM
same,TGI,[2],1.69 µM
same,GI50,[3],0.0489 µM
same,TGI,[3],1.45 µM
same,GI50,[4],1.49 µM
same,TGI,[4],2.91 µM
same,GI50,[5],0.0366 µM
same,TGI,[5],1.82 µM
same,GI50,[6],< 0.01 µM
same,TGI,[6],1.07 µM
same,GI50,[7],0.196 µM
same,TGI,[7],1.95 µM
same,GI50,[8],< 0.0219 µM
same,TGI,[8],1.97 µM
same,GI50,[9],0.0134 µM
same,TGI,[9],1.36 µM
same,GI50,[10],1.1 µM
same,TGI,[10],2.32 µM
same,GI50,[11],0.11 µM
same,TGI,[11],2 µM
same,GI50,[12],0.758 µM
same,TGI,[12],2.12 µM
same,GI50,[13],1.25 µM
same,TGI,[13],2.51 µM
same,GI50,[14],0.0824 µM
same,TGI,[14],1.4 µM
same,GI50,[15],0.075 µM
same,TGI,[15],1.89 µM
same,GI50,[16],1.48 µM
same,TGI,[16],3.08 µM
same,GI50,[17],0.2 µM
same,TGI,[17],2.15 µM
same,GI50,[18],0.0562 µM
same,TGI,[18],2.68 µM
same,GI50,[19],1.21 µM
same,TGI,[19],2.46 µM
same,GI50,[20],0.0562 µM
same,TGI,[20],1.53 µM
same,GI50,[21],1.07 µM
same,TGI,[21],2.58 µM
same,GI50,[22],1.1 µM
same,TGI,[22],2.32 µM
same,GI50,[23],1.26 µM
same,TGI,[23],2.54 µM
same,GI50,[24],1.29 µM
same,TGI,[24],2.77 µM
same,GI50,[25],< 0.01 µM
same,GI50,[26],1.37 µM
same,TGI,[26],2.69 µM
same,GI50,[27],0.242 µM
same,TGI,[27],2.2 µM
same,GI50,[28],1.21 µM
same,TGI,[28],2.58 µM
same,GI50,[29],< 0.0196 µM
same,TGI,[29],1.76 µM
same,GI50,[30],0.293 µM
same,TGI,[30],0.894 µM
same,GI50,[31],0.0889 µM
same,TGI,[31],1.72 µM
same,GI50,[32],0.0379 µM
same,TGI,[32],2.21 µM
same,GI50,[33],0.315 µM
same,TGI,[33],2.43 µM
same,GI50,[34],< 0.01 µM
same,TGI,[34],1.35 µM
same,GI50,[35],0.0178 µM
same,TGI,[35],0.0575 µM
same,GI50,[36],< 0.01 µM
same,TGI,[36],2.16 µM
same,GI50,[37],0.0136 µM
same,TGI,[37],0.0364 µM
same,GI50,[38],0.11 µM
same,TGI,[38],1.97 µM
same,GI50,[39],0.997 µM
same,TGI,[39],2.16 µM
same,GI50,[40],0.0358 µM
same,TGI,[40],2.32 µM
same,GI50,[41],< 0.01 µM
same,TGI,[41],1.77 µM
same,GI50,[42],< 0.01 µM
same,TGI,[42],2.48 µM
same,GI50,[43],0.027 µM
same,TGI,[43],0.0862 µM
same,GI50,[44],0.0362 µM
same,TGI,[44],0.305 µM
same,GI50,[45],0.283 µM
same,TGI,[45],2.28 µM
same,GI50,[46],< 0.01 µM
same,GI50,[47],0.605 µM
same,TGI,[47],2.18 µM
same,GI50,[48],< 0.01 µM
same,TGI,[48],1.25 µM
same,GI50,[49],< 0.0115 µM
same,TGI,[49],1.48 µM
same,GI50,[50],< 0.0194 µM
same,TGI,[50],1.45 µM
same,GI50,[51],1.09 µM
same,TGI,[51],2.32 µM
same,GI50,[52],0.312 µM
same,TGI,[52],2.37 µM
same,GI50,[53],< 0.01 µM
same,TGI,[53],0.0111 µM
same,GI50,[54],1.14 µM
same,TGI,[54],2.4 µM
same,GI50,[55],1.38 µM
same,TGI,[55],2.71 µM
same,GI50,[56],< 0.0198 µM
same,TGI,[56],1.75 µM
same,GI50,[57],1.22 µM
same,TGI,[57],2.48 µM
same,GI50,[58],0.0615 µM
same,TGI,[58],2.02 µM
same,GI50,[59],< 0.01 µM
